Measured values reported in publication PMC11843629, “Development of ketobenzothiazole-based peptidomimetic TMPRSS13 inhibitors with low nanomolar potency” (Journal of Enzyme Inhibition and Medicinal Chemistry, 2025).
Changes are numbered by the printed parent chain. Read-outs that look alike come from different tables or passages of the source.

How the values were obtained:
TMPRSS13 = molecular target: T1, TMPRSS13 (Homo sapiens, UniProt Q9BYE2, K566A/R563A/R565A); assay: In vitro inhibition assay, recombinant TMPRSS13-AFAAS-6His, Boc-RVRR-AMC; format: biochemical; settings: dose-response curve, Cheng-Prusoff equation
T1 construct: Shedding of the TMPRSS13 catalytic domain was detected for both constructs in the cell media; made in house; host or cells: Expi293F cells
T1 sequence (Q9BYE2 with tags, fused parts or gaps isoform Q9BYE2-6 limits assumed): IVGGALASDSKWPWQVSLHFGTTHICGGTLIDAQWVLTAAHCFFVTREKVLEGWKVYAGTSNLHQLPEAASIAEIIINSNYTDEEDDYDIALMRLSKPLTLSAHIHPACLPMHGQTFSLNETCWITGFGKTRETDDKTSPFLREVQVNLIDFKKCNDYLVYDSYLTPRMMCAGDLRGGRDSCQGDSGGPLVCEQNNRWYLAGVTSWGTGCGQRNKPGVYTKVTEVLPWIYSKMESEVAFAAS
Description: TMPRSS13-AFAAS-6His was expressed via the Expi293 Expression System Kit (Thermo Fisher Scientific, A14635) according to the manufacturer’s instructions and purified via IMAC chromatography. Briefly, Expi293F cells were transfected for 48 h with the TMPRSS13-AFAAS-6His construct, and media containing the shed recombinant protease was injected on a HisTrap Excel column (Cytiva, 17371206) via an ÄKTA Start protein purification system (Cytiva). The bound proteins were then eluted (20 mM sodium phosphate pH 7.4, 500 mM NaCl, and 500 mM imidazole), and the TMPRSS13-containing fractions were dialysed for 16 h at 4 °C in storage buffer (20 mM sodium phosphate pH 7.4, 150 mM NaCl, and 10% glycerol). Proteins were then concentrated via a 10 kDa Amicon Ultra centrifugal filter (Millipore Sigma, UFC8010) and stored at −80 °C.
(§1) Recombinant TMPRSS13-AFAAS-6His (this study) and matriptase[34] were expressed and purified as described. Recombinant human furin, Factor Xa (R&D Systems) and thrombin (MilliporeSigma) were obtained from commercial sources. Assays were performed in a buffer composed of 50 mM HEPES pH 7.4, 1 mM β-mercaptoethanol, 1 mM CaCl2 and 500 μg/ml BSA for furin and 50 mM HEPES pH 7.4, 150 mM NaCl and 0.1% BSA for other proteases. Assays were performed at room temperature using fluorogenic substrates (Boc-RVRR-AMC for furin and TMPRSS13, Boc-QAR-AMC for other proteases). The enzymatic activity was measured via fluorescence (excitation at 360 nm and emission at 460 nm) at room temperature using an HTX Synergy microplate reader (Agilent). Kis for TMPRSS13 and Factor Xa (FXa) were derived from IC50 dose–response curves using the Cheng-Prusoff equation[35] for reversible competitive inhibitors. For matripase, a plot of the enzyme velocity as a function of the inhibitor concentration was fitted with nonlinear regression analysis via the Morrison Ki equation[36] for competitive tight-binding inhibitors.

thrombin = molecular target: T2, thrombin (Homo sapiens, UniProt P00734); assay: In vitro inhibition assay, thrombin, Boc-QAR-AMC; format: biochemical
T2 construct: purchased MilliporeSigma
Description: as §1

furin = molecular target: T3, furin (Homo sapiens, UniProt P09958); assay: In vitro inhibition assay, furin, Boc-RVRR-AMC; format: biochemical
T3 construct: purchased R&D Systems
T3 sequence (P09958 108-794): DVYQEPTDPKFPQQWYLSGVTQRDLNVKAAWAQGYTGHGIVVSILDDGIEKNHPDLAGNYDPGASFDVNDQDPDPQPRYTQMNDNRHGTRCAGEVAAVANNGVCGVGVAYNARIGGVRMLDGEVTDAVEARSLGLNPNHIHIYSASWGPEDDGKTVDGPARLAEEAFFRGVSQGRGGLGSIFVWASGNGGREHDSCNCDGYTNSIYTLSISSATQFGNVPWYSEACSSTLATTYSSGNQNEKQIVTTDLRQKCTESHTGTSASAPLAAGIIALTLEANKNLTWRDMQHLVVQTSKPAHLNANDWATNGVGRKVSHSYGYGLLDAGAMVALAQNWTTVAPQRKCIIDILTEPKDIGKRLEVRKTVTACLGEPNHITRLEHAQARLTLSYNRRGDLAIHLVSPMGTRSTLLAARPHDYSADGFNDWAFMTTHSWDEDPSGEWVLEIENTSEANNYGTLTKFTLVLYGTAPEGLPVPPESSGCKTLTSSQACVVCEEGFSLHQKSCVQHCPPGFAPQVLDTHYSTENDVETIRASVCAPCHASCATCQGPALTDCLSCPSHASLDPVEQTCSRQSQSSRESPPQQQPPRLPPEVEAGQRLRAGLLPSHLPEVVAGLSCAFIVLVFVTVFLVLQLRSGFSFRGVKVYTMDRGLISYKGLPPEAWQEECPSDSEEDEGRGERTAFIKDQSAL
Description: as §1

matriptase = molecular target: T4, matriptase (Homo sapiens, UniProt Q9Y5Y6); assay: In vitro inhibition assay, matriptase, Boc-QAR-AMC; format: biochemical; settings: Morrison Ki equation, tight-binding
T4 construct: made in house
T4 sequence (Q9Y5Y6 1-855): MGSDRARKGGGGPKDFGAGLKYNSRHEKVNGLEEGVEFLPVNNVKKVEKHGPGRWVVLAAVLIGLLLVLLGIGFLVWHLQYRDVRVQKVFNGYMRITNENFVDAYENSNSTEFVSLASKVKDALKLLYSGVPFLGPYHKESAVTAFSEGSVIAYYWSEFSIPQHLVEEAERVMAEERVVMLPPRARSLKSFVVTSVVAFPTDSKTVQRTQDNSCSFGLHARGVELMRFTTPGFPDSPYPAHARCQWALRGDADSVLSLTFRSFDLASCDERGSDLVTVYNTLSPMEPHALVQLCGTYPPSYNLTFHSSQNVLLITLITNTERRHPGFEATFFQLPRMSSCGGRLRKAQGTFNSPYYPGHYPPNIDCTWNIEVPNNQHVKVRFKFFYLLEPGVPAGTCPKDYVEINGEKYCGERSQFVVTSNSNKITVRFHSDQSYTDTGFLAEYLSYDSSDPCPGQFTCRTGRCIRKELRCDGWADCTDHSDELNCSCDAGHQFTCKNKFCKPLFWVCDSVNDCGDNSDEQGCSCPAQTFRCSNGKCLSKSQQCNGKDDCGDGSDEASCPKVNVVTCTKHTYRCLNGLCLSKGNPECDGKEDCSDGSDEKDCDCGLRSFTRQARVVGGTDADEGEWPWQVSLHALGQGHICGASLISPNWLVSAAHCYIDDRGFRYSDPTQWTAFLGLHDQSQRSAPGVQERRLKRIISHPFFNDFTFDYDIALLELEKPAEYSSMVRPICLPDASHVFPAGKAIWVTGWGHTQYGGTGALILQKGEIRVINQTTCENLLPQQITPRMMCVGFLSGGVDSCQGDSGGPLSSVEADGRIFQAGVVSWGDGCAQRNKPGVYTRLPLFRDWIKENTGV
Description: as §1

Factor Xa = molecular target: T5, Factor Xa (Homo sapiens, UniProt P00742); assay: In vitro inhibition assay, Factor Xa, Boc-QAR-AMC; format: biochemical; settings: Cheng-Prusoff equation
T5 construct: purchased R&D Systems
T5 sequence (P00742 235-488 limits assumed): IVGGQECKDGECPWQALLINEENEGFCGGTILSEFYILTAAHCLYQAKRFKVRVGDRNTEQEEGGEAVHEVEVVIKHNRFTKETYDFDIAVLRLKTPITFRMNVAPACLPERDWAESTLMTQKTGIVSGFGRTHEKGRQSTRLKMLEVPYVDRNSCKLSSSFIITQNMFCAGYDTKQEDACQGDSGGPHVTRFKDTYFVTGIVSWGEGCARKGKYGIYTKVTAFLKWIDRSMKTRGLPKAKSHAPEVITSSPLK
T5 sequence (P00742 41-179 partner limits assumed): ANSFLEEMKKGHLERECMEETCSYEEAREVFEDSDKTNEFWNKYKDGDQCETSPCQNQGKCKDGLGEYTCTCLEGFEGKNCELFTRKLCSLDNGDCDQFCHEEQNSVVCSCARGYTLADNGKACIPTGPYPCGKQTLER
Description: as §1

WT TMPRSS13 = molecular target: T6, WT TMPRSS13 (Homo sapiens, UniProt Q9BYE2); assay: In cellulo inhibitory activity in TMPRSS13-transfected Vero cells; format: cell-based; settings: 10 µM compound, 24 h, media, relative to DMSO; for remaining activity at 10 µM: read-out: residual activity of TMPRSS13
T6 construct: the full length TMPRSS13 (TMPRSS13-WT); expressed in transfected cells; host or cells: Vero C1008 (Vero E6) cells
T6 sequence (Q9BYE2 326-567 isoform Q9BYE2-6 limits assumed): T1 sequence (Q9BYE2 with tags, fused parts or gaps isoform Q9BYE2-6 limits assumed) with A238R, A240R, A241K
Description: Vero C1008 cells were grown in 12-well plates (200K cells per well) and transfected for 24 h via Lipofectamine 3000 (Life Technologies) with one of the following plasmids: pcDNA3.1 (empty vector, EV), pcDNA3.1-TMPRSS13 WT or pcDNA3.1-TMPRSS13-AFAAS-6His. The cells were then washed 2 times with PBS before HCell-100 medium (Wisent) containing the indicated concentrations of each compound or the control condition (0.01% DMSO) was added. After 24 h of incubation with the compounds, the medium was harvested, and 90 μL was placed in 96-well plate wells with 10 µL of 200 μM Boc-RVRR-AMC. Fluorescence was acquired at room temperature in an FLx800 TBE microplate reader, with excitation at 360 nm and emission at 460 nm. The background was then subtracted by removing the signal recorded with the cells transfected with the empty vector (pcDNA3.1). Proteolytic activity results are represented as a percentage of the DMSO-treated condition. The IC50 was calculated via nonlinear regression of the compound concentration relative to the velocity.

in vitro = settings: final conc. 0.2 mM, 37 °C
From the text: Adult male Sprague-Dawley rats, weighing between 225 and 300 g (Charles River Laboratories, St. Constant, Canada), were housed in groups of four per double-decker cage on Aspen shavings in a quiet environment. They were maintained under a 12-h light/dark cycle with unrestricted access to food and water. All experimental protocols received approval from the Animal Care Committee of the Université de Sherbrooke, adhering to the Canadian Council on Animal Care guidelines. The procedures also followed the ARRIVE guidelines (Animals in Research: Reporting In Vivo Experiments) and the United States NIH regulations (Ethics approval ID: 2022–3440). To evaluate the stability of compounds in plasma, 6 rats were anaesthetised with 2 L/min oxygen and 5% isoflurane, after which plasma was collected, pooled, and stored frozen until experiments were performed.
For evaluating plasma stability, rats were anaesthetised using a flow of 2 L/min of oxygen combined with 5% isoflurane. Blood was obtained via cardiac puncture from the left ventricle using a 20 G ½ needle, collected in pre-chilled Vacutainer K2EDTA tubes (367861), and maintained on wet ice. The blood was then centrifuged at 2000 xG for 15 min at 4 °C. Plasma samples were pooled from six rats, aliquoted, and stored at −80 °C. […] To terminate the reaction, 140 μL of a 1:1 acetonitrile-ethanol solution containing 0.25 mM N,N-dimethylbenzamide (used as an internal standard) was added. The resulting mixture was transferred onto an Impact Protein Precipitation filter plate (Phenomenex, California), with a 96-well UPLC plate positioned below to collect the filtrates. Both plates were centrifuged at 500 × g for 10 min at 4 °C. The filtrates were diluted with 30 μL of distilled water before analysis using an Acquity UPLC-MS system class H (column Acquity UPLC protein BEH C18 (2.1 mm × 50 mm), 1.7 μm particles, 130 Å pore size). The peptide’s half-life was determined from the degradation profile utilising the exponential one-phase decay function in GraphPad Prism 9. Mass spectra obtained at time points close to the calculated half-life were compared with those at 0 min (plasma inactivated prior to compound addition) to identify cleavage fragments.

human trypsin = assay: Proteolysis assay (stability) with human trypsin; format: in vitro ADME; settings: human trypsin (isolated protease), pH 7.4, compound final conc. 10 µM, 37 °C
Description: For the proteolysis assay, human trypsin (#T6424, Sigma–Aldrich, Saint-Louis, Missouri, USA) was resuspended in 1 mM HCl and 20 mM CaCl2, pH 3, and diluted to a final concentration of 0.1 mg/ml in PBS buffer (pH 7.4, 10 mM PO43-, 150 mM NaCl). The control peptide R8 and the compounds of interest were added to a 96-well plate (37 °C) to a final concentration of 10 µM. Trypsin (0.1 µg/ml) was added to the wells for 0, 0.5, 1, 2, 4 and 6 h. The plate was quenched with AcN/EtOH (1:1) 1% formic acid and 0.25 mM N,N-dimethylbenzamide (IS) and centrifuged at 4 °C.

Compound	Ki (TMPRSS13)	other results
N=C(N)NCCC[C@H](NC(=O)[C@@H]1CCCN1C(=O)[C@H](CCC(N)=O)NC(=O)[C@@H](N)CCCNC(=N)N)C(=O)c1nc2ccccc2s1 [Compound N-0107, RQPR-kbt]	14.7 nM	–
C[C@H](NC(=O)CCCCNC(=N)N)C(=O)N[C@@H](Cc1ccccc1)C(=O)N[C@@H](CCCNC(=N)N)C(=O)c1nc2ccccc2s1 [Compound N-0439, (H)-RAFR-Kbt]	35.9 nM	–
N=C(N)NCCC[C@H](NC(=O)[C@H](Cc1ccc(O)cc1)NC(=O)[C@H](CCC(N)=O)NC(=O)[C@@H](N)CCCNC(=N)N)C(=O)c1nc2ccccc2s1 [Compound N-0108]	22.3 nM	–
C[C@H](NC(=O)[C@H](CCC(N)=O)NC(=O)[C@@H](N)CCCNC(=N)N)C(=O)N[C@@H](CCCNC(=N)N)C(=O)c1nc2ccccc2s1 [Compound N-0100]	31.4 nM	–
C[C@H](NC(=O)[C@H](CCC(N)=O)NC(=O)[C@@H](N)CCCCNC(=N)N)C(=O)N[C@@H](CCCNC(=N)N)C(=O)c1nc2ccccc2s1 [Compound N-0179]	24.8 nM	–
C[C@H](NC(=O)[C@H](CCC(N)=O)NC(=O)[C@H](CCCNC(=N)N)NC(=O)c1ccccc1)C(=O)N[C@@H](CCCNC(=N)N)C(=O)c1nc2ccccc2s1 [Compound N-0182, PhCO-RQAR-Kbt]	28.5 nM	–
N=C(N)NCCC[C@H](NC(=O)[C@H](Cc1ccccc1)NC(=O)CCCC(N)=O)C(=O)c1nc2ccccc2s1 [Compound N-0388, (H)-QFR-Kbt]	1440 nM	Ki (thrombin): > 10 µM; Ki (furin): > 10 µM; Ki (matriptase): 24.2 nM; Ki (Factor Xa): 1200 ± 167 nM; residual activity of TMPRSS13 (WT TMPRSS13; 10 µM): 92%; remaining activity at 10 µM (WT TMPRSS13; Vero): 72%
N=C(N)NCCC[C@H](NC(=O)[C@H](CCc1ccccc1)NC(=O)[C@H](CCC(N)=O)NC(=O)[C@@H](N)CCCNC(=N)N)C(=O)c1nc2ccccc2s1 [Compound N-0159, RQhFR-kbt]	10.3 nM	half-life at 0.2 mM (in vitro; male, Sprague-Dawley, rat, pooled rat plasma (K2EDTA), Mean half-life, Plasma): 9 min; Mean half-life, Plasma (in vitro; rat plasma (male)): 8.97 min; half-life at 10 µM (human trypsin): 2300 min; remaining activity at 10 µM (WT TMPRSS13): 37.7%
N=C(N)NCCCCC(=O)N[C@@H](CCC(N)=O)C(=O)N[C@@H](CC1CCCCC1)C(=O)N[C@@H](CCCNC(=N)N)C(=O)c1nc2ccccc2s1 [Compound N-0678]	30 nM	–
N=C(N)NCCC[C@H](NC(=O)[C@H](Cc1ccc(F)cc1)NC(=O)[C@H](CCC(N)=O)NC(=O)[C@@H](N)CCCNC(=N)N)C(=O)c1nc2ccccc2s1 [Compound N-0136]	17.7 nM	–
N=C(N)NCCCCC(=O)N[C@@H](CCC(N)=O)C(=O)N[C@@H](CCc1ccccc1)C(=O)N[C@@H](CCCNC(=N)N)C(O)c1nc2ccccc2s1 (stereo partly drawn) [N-0430(OH), (H)-RQhFR-(OH)bt]	> 10000 nM	–
